# Where “and” joins values, the source holds several entries; their conditions need not be identical. Equal values may be shown once.
# Test system: 596521-263-R-J1-PDC complex spheroids, viability % of control
# Test: Anticancer human tumor 596521-263-R-J1-PDC patient-derived soft tissue sarcoma cell line growth inhibition [GQUAD]
# Conditions: for viability, T/C: stronger effect = lower value
# Summary of the method: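 Multi-cell-type spheroids of tumor cells with HUVEC and mesenchymal stem cells, treated with drug combinations. Concentrations descend in half-log steps from near clinical Cmax, or from 10 microM where Cmax is unknown; viability read-out.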
# [1] = curve of first compound, second compound 0.0316 µM
# [2] = curve of first compound, second compound 0.1 µM
# [3] = curve of first compound, second compound 0.316 µM
# [4] = curve of first compound, second compound 1 µM
# [5] = curve of first compound, second compound 3.16 µM
# [6] = curve of first compound, second compound 10 µM
# [7] = second compound 0.0316 µM, first compound 0.0316 µM
# [8] = second compound 0.0316 µM, first compound 0.1 µM
# [9] = second compound 0.0316 µM, first compound 0.316 µM
# [10] = second compound 0.0316 µM, first compound 1 µM
# [11] = second compound 0.0316 µM, first compound 3.16 µM
# [12] = second compound 0.0316 µM, first compound 10 µM
# [13] = second compound 0.1 µM, first compound 0.0316 µM
# [14] = second compound 0.1 µM, first compound 0.1 µM
# [15] = second compound 0.1 µM, first compound 0.316 µM
# [16] = second compound 0.1 µM, first compound 1 µM
# [17] = second compound 0.1 µM, first compound 3.16 µM
# [18] = second compound 0.1 µM, first compound 10 µM
# [19] = second compound 0.316 µM, first compound 0.0316 µM
# [20] = second compound 0.316 µM, first compound 0.1 µM
# [21] = second compound 0.316 µM, first compound 0.316 µM
# [22] = second compound 0.316 µM, first compound 1 µM
# [23] = second compound 0.316 µM, first compound 3.16 µM
# [24] = second compound 0.316 µM, first compound 10 µM
# [25] = second compound 1 µM, first compound 0.0316 µM
# [26] = second compound 1 µM, first compound 0.1 µM
# [27] = second compound 1 µM, first compound 0.316 µM
# [28] = second compound 1 µM, first compound 1 µM
# [29] = second compound 1 µM, first compound 3.16 µM
# [30] = second compound 1 µM, first compound 10 µM
# [31] = second compound 3.16 µM, first compound 0.0316 µM
# [32] = second compound 3.16 µM, first compound 0.1 µM
# [33] = second compound 3.16 µM, first compound 0.316 µM
# [34] = second compound 3.16 µM, first compound 1 µM
# [35] = second compound 3.16 µM, first compound 3.16 µM
# [36] = second compound 3.16 µM, first compound 10 µM
# [37] = second compound 10 µM, first compound 0.0316 µM
# [38] = second compound 10 µM, first compound 0.1 µM
# [39] = second compound 10 µM, first compound 0.316 µM
# [40] = second compound 10 µM, first compound 1 µM
# [41] = second compound 10 µM, first compound 3.16 µM
# [42] = second compound 10 µM, first compound 10 µM
# 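Note: spheroids exposed to drugs for 7 days before viability reading.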
# 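Throughout, for viability, T/C: 100% = DMSO vehicle control viability.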
smiles,measurement,setting,value
CCCS(=O)(=O)Nc1ccc(F)c(C(=O)c2c[nH]c3ncc(-c4ccc(Cl)cc4)cc23)c1F + Cc1cnc(CNC(=O)c2c(=O)c3ccc(N4CCCN(C)CC4)nc3n3c2sc2ccccc23)cn1,IC50,[1],8290 nM
same,IC50,[2],7340 nM
same,IC50,[3],6680 nM
same,IC50,[4],5020 nM
same,IC50,[5],4250 nM
same,IC50,[6],< 31.6 nM
same,"viability, T/C",[7],100%
same,"viability, T/C",[8],90.1%
same,"viability, T/C",[9],98.1%
same,"viability, T/C",[10],97.5%
same,"viability, T/C",[11],78.5%
same,"viability, T/C",[12],44.4%
same,"viability, T/C",[13],90.6%
same,"viability, T/C",[14],85.5%
same,"viability, T/C",[15],95.7%
same,"viability, T/C",[16],79.4%
same,"viability, T/C",[17],83.6%
same,"viability, T/C",[18],37.5%
same,"viability, T/C",[19],81.2%
same,"viability, T/C",[20],84.6%
same,"viability, T/C",[21],80.1%
same,"viability, T/C",[22],71.7%
same,"viability, T/C",[23],71.3%
same,"viability, T/C",[24],39.5%
same,"viability, T/C",[25],64.2%
same,"viability, T/C",[26],65.8%
same,"viability, T/C",[27],67%
same,"viability, T/C",[28],61.5%
same,"viability, T/C",[29],53.3%
same,"viability, T/C",[30],43.1%
same,"viability, T/C",[31],57%
same,"viability, T/C",[32],50.3%
same,"viability, T/C",[33],62.8%
same,"viability, T/C",[34],52%
same,"viability, T/C",[35],55.2%
same,"viability, T/C",[36],35.8%
same,"viability, T/C",[37],46.5%
same,"viability, T/C",[38],27.8%
same,"viability, T/C",[39],50.4%
same,"viability, T/C",[40],46.1%
same,"viability, T/C",[41],24.7%
same,"viability, T/C",[42],0.21%
Cc1cnc(CNC(=O)c2c(=O)c3ccc(N4CCCN(C)CC4)nc3n3c2sc2ccccc23)cn1,"viability, T/C",compound 0.0316 µM,99% [middle of 12 runs]
same,"viability, T/C",compound 0.1 µM,93.1% [middle of 12 runs]
same,"viability, T/C",compound 0.316 µM,80.5% [middle of 12 runs]
same,"viability, T/C",compound 1 µM,68% [middle of 12 runs]
same,"viability, T/C",compound 3.16 µM,56.4% [middle of 12 runs]
same,"viability, T/C",compound 10 µM,47.9% [middle of 12 runs]
CC1COCCN1c1cc(C2(O)CC3CCC(C2)O3)c2cnn(-c3ccn[nH]3)c2n1 (configuration not stated) + Cc1[nH]c2ccc(F)cc2c1-c1nc2c3cccnc3c3ncccc3c2[nH]1,IC50,[1],280 nM
same,IC50,[2],267 nM
same,IC50,[3],207 nM
same,IC50,[4],327 nM
same,IC50,[5],233 nM
same,IC50,[6],131 nM
same,"viability, T/C",[7],68.8%
same,"viability, T/C",[8],56.8%
same,"viability, T/C",[9],52.6%
same,"viability, T/C",[10],32.8%
same,"viability, T/C",[11],23%
same,"viability, T/C",[12],12.4%
same,"viability, T/C",[13],77.5%
same,"viability, T/C",[14],60.1%
same,"viability, T/C",[15],48.9%
same,"viability, T/C",[16],35.1%
same,"viability, T/C",[17],25.6%
same,"viability, T/C",[18],14.6%
same,"viability, T/C",[19],64.8%
same,"viability, T/C",[20],54.1%
same,"viability, T/C",[21],48.8%
same,"viability, T/C",[22],34.2%
same,"viability, T/C",[23],25.3%
same,"viability, T/C",[24],13.1%
same,"viability, T/C",[25],72.4%
same,"viability, T/C",[26],62.7%
same,"viability, T/C",[27],52%
same,"viability, T/C",[28],33.8%
same,"viability, T/C",[29],25.6%
same,"viability, T/C",[30],16.1%
same,"viability, T/C",[31],63.9%
same,"viability, T/C",[32],59.4%
same,"viability, T/C",[33],47%
same,"viability, T/C",[34],32.2%
same,"viability, T/C",[35],26%
same,"viability, T/C",[36],14.9%
same,"viability, T/C",[37],54.4%
same,"viability, T/C",[38],55%
same,"viability, T/C",[39],42.4%
same,"viability, T/C",[40],27.6%
same,"viability, T/C",[41],25.3%
same,"viability, T/C",[42],14.2%
Nc1ccn(C2OC(CO)C(O)C2(F)F)c(=O)n1 (configuration not stated),"viability, T/C",compound 0.0316 µM,53.5% and 48% and 59.9%
same,"viability, T/C",compound 0.1 µM,35.8% and 49.4% and 43.2%
same,"viability, T/C",compound 0.316 µM,45% and 45.2% and 42.6%
same,"viability, T/C",compound 1 µM,42.5% and 40.8% and 52%
same,"viability, T/C",compound 3.16 µM,42.5% and 38.6% and 49.9%
same,"viability, T/C",compound 10 µM,33.4% and 33.3% and 40.1%
same,IC50,curve of compound,< 31.6 nM and 35.4 nM and 168 nM
